Test in all cases: ITC
A general note: In ITC the heat of successive injections is recorded.

Assay [1] has as its system SAM-I riboswitch G3nU (RNA, riboswitch) GGCUUAUCAAGAGAGGUUGAGGGACUGGCCCGACGAAACCCGGCAACCAGAAAUGGUGCCAAUUCCUGCAGCGGAAACGUUGAAAGAUGAGCCG
The conditions noted are these: 100 mM KCl, 10 mM MgCl2; 50 mM HEPES pH 7.5, 30 °C.

The subject of assay [2] is SAM-I riboswitch A1nU (RNA, riboswitch) GGCUUAUCAAGAGAGGUGGUGGGACUGGCCCGACGAAACCCGGCAACCAGAAAUGGUGCCAAUUCCUGCAGCGGAAACGUUGAAAGAUGAGCCG
The note with it: 100 mM KCl, 10 mM MgCl2; 50 mM HEPES pH 7.5, 30 °C; 100 μM SAM titrated into 10 μM RNA; no heat evolved.

In assay [3] the test system is SAM-I riboswitch A1nC (RNA, riboswitch) GGCUUAUCAAGAGAGGUGGCGGGACUGGCCCGACGAAACCCGGCAACCAGAAAUGGUGCCAAUUCCUGCAGCGGAAACGUUGAAAGAUGAGCCG
The note with it: 100 mM KCl, 10 mM MgCl2; 50 mM HEPES pH 7.5, 30 °C; 100 μM SAM titrated into 10 μM RNA; no heat evolved.

Assay [4] concerns SAM-I riboswitch, natural k-turn (RNA, riboswitch) GGCUUAUCAAGAGAGGUGGAGGGACUGGCCCGACGAAACCCGGCAACCAGAAAUGGUGCCAAUUCCUGCAGCGGAAACGUUGAAAGAUGAGCCG
The note with it: 100 mM KCl, 10 mM MgCl2; 50 mM HEPES pH 7.5, 30 °C.

For assay [5], the system named is SAM-I riboswitch A1nC, G2nU, G3nU (RNA, riboswitch) GGCUUAUCAAGAGAGGUUUCGGGACUGGCCCGACGAAACCCGGCAACCAGAAAUGGUGCCAAUUCCUGCAGCGGAAACGUUGAAAGAUGAGCCG
The note with it: 100 mM KCl, 10 mM MgCl2; 50 mM HEPES pH 7.5, 30 °C; 100 μM SAM titrated into 10 μM RNA; no heat evolved.

Assay [6] has as its system SAM-I riboswitch G2nU, G3nU (RNA, riboswitch) GGCUUAUCAAGAGAGGUUUAGGGACUGGCCCGACGAAACCCGGCAACCAGAAAUGGUGCCAAUUCCUGCAGCGGAAACGUUGAAAGAUGAGCCG
The conditions noted are these: 100 mM KCl, 10 mM MgCl2; 50 mM HEPES pH 7.5, 30 °C.

For assay [7], the system named is SAM-I riboswitch G2nA (RNA, riboswitch) GGCUUAUCAAGAGAGGUGAAGGGACUGGCCCGACGAAACCCGGCAACCAGAAAUGGUGCCAAUUCCUGCAGCGGAAACGUUGAAAGAUGAGCCG
The note with it: 100 mM KCl, 10 mM MgCl2; 50 mM HEPES pH 7.5, 30 °C.

The subject of assay [8] is SAM-I riboswitch G2nC (RNA, riboswitch) GGCUUAUCAAGAGAGGUGCAGGGACUGGCCCGACGAAACCCGGCAACCAGAAAUGGUGCCAAUUCCUGCAGCGGAAACGUUGAAAGAUGAGCCG
The conditions noted are these: 100 mM KCl, 10 mM MgCl2; 50 mM HEPES pH 7.5, 30 °C; 100 μM SAM titrated into 10 μM RNA; no heat evolved.

Data on one molecule can be found in paper PMC3651934 (2011).

SMILES strings stand for the structures.

Broadly, the Kd is the constant that tells how readily two partners part at equilibrium.

For the molecule `C[S+](CC[C@H](N)C(=O)O)C[C@H]1O[C@@H](n2cnc3c(N)ncnc32)[C@H](O)[C@@H]1O` (some centres unmarked), the Kd stood at 340 ± 40 nM in assay [1], 540 ± 250 nM in assay [4], 1950 ± 270 nM in assay [6] and 310 ± 60 nM in assay [7]. In addition, the binding result in assay [2], in assay [3], in assay [5] and in assay [8] was “no” throughout.
